Legend:
HRas^G12V [1] = molecular target: T1, HRas^G12V (Homo sapiens (Human), UniProt P01112, G12V); assay: Overall binding/activity in the various assays (NMR consensus binding)
Procedure: Since the fragment library was curated using phosphate buffer, 25 mM sodium phosphate pH 7.4, 150 mM NaCl, 5 mM MgCl2, 1 mM TCEP-d16, 10% D2O Fresh TCEP was used for experiments. Screening was performed using ^1H-decoupled 1D ^19F experiment Bruker experiment (zgfhigqn.2) with 64 scans and a relaxation delay of 5 seconds. 50 μM HRas^G12V and 240 μM of each fragment in pools (mixtures) were used.
Hit confirmation was performed using the same ^19F experiment as the screen. Ligand-observed 1D ^1H, protein-observed 1D ^1H, ^1H T2-CPMG as well as Saturation Transfer Difference (STD) experiments were also run on the same samples. Ligand-observed 1D ^1H was run using the standard Bruker sequence with excitation sculpting (zgesgp) with a relaxation delay of 10 seconds and 16 scans per spectrum. Protein-observed 1D ^1H was performed using the same sequence with a relaxation delay of 1 second and 256 scans in order to increase the signal-to-noise of the protein resonances, while keeping the experimental time relatively short. The ^1H T2-CPMG experiment employed a modified version of the Bruker 1D ^1H zgesgp experiment with the addition of a CPMG pulse train after the first 90° excitation pulse. Total duration for each spin echo was fixed at 1 ms (τ=500 μs), while the number of echoes in the pulse train was varied according to the total time (T). The number of scans for each spectrum was 4 and eight delay times were run on each sample, ranging from 1 ms to 800 ms.
STD experiments consisted of two independent spectra with offsets of 0 ppm (on resonance) and −20 ppm (off resonance). […] 160 scans were acquired for each spectrum.
The results obtained with the compounds in the various assays described above are depicted in Table 21.
Because of its power to probe the intrinsically weak interactions (Kd) between targets and low-molecular weight fragments, NMR fragment-based lead discovery (FBLD) is a very useful biophysical method in early stage drug discovery, especially for challenging target proteins; including those with shallow binding pockets. Since FBLD screens are performed using low-molecular weight compounds (fragments) with lower structural complexity, the same chemical space can be covered using a smaller number of drug-like fragments versus use of large libraries of higher-molecular weight lead-like compounds as in high throughput screening (HTS) campaigns. Therefore, FBLD has a much higher hit rate than HTS using only several hundred to several thousand compounds in comparison with approximately 1 million compounds for HTS. Also, the small size of the compounds screened in FBLD means a better chance to fully match the interactions with small or transient pockets within the target protein, where these less tractable pockets cannot be accessed with standard classical HTS methods. […] We expect this methodology to be more advantageous than classical HTS methods for expediting the time from hit to lead (H2L) and allows for rapid access to high quality leads with lower attrition rates in subsequent lead optimization (LO) campaigns toward pre-clinical candidate selection. FBLD screening by NMR involves a “consensus binding” approach where several distinct NMR experiments (DLB, STD, CPMG) are applied along with a free-state aggregation detection method (T2-CPMG) to rank the compounds for their affinity to the receptor (HRAS in this case) whilst simultaneously monitoring the solution behavior and critical quality attributes of each compound. The latter helps to eliminate artifact binders which are highly problematic. We performed a fluorine screen involving 461 compounds that were derived from a highly curated fragment library. Moreover, two-dimensional ^15N HSQC NMR was also used to validate ligand-binding sites on the target protein. In addition, we employed protein-detected biophysical measurements were employed to determine fragment binding affinities to the target protein (Kd) by HSQC NMR. […]

HRas^G12V [2] = molecular target: T1, HRas^G12V; assay: 19F T2-CPMG NMR score; assay type: binding
Summary of the method: (§1)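 Fragments were pooled at 240 μM each with 50 μM HRas G12V in 25 mM sodium phosphate pH 7.4, 150 mM NaCl, 5 mM MgCl2, 1 mM TCEP-d16, 10% D2O, and screened by 1H-decoupled 1D 19F NMR at 600 MHz (64 scans, 5 s relaxation delay). T2-CPMG data were collected with 1 ms echoes and eight delays from 1 to 800 ms.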

HRas^G12V [3] = molecular target: T1, HRas^G12V; assay: 19F DLB (ligand-observed 19F NMR) score; assay type: binding; set-up: scale not given here
Summary of the method: as §1

T1 sequence (P01112 1-166 G12V): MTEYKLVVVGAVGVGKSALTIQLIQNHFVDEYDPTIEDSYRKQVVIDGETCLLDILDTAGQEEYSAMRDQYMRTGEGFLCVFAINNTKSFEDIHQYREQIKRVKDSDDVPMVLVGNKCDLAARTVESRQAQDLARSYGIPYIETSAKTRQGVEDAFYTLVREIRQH

Structure (SMILES) | Binding to HRas^G12V (in words) (HRas^G12V [1]) | 19F T2-CPMG Score (HRas^G12V [2]) | 19F DLB Score (HRas^G12V [3])
CN1CCC(NC(=O)Cc2c[nH]c3cc(F)ccc23)C(C(=O)O)C1 (stereo not drawn) [Compound 10119, 4-(2-(6-fluoro-1H-indol-3-yl)acetamido)-1-methylpiperidine-3-carboxylic acid] | low or no binding | −0.46 | 0.87
CCOC(=O)[C@H]1COCCN1C(=O)Cc1c[nH]c2cc(F)ccc12 [Compound 10121] | low or no binding | 5.23 | 1.26
O=C(O)[C@@H]1CCCCN1C(=O)Cc1c[nH]c2cc(F)ccc12 [Compound 10123] | low or no binding | 2.37 | 1.5
O=C(O)CC1CCN(C(=O)Cc2c[nH]c3cc(F)ccc23)CC1 [Compound 10127] | low or no binding | 4.35 | 1.3
O=C(O)[C@H]1CCCN(C(=O)Cc2c[nH]c3cc(F)ccc23)C1 [Compound 10133, (S)-1-(2-(6-fluoro-1H-indol-3-yl)acetyl)piperidine-3-carboxylic acid] | low or no binding | 2.85 | 1.63
O=C(Cc1c[nH]c2cc(F)ccc12)N1CCOC(c2ccccc2)C1 (stereo not drawn) [Compound 10136] | low or no binding | 6.73 | 1.55
CCOC(=O)[C@@H]1COCCN1C(=O)Cc1c[nH]c2cc(F)ccc12 [Compound 10140, ethyl (S)-4-(2-(6-fluoro-1H-indol-3-yl)acetyl) morpholine-3-carboxylate] | low or no binding | 5.98 | 1.49
COC(=O)C1CN(C(C)C)CCC1NC(=O)Cc1c[nH]c2cc(F)ccc12 (stereo not drawn) [Compound 10141, methyl 4-(2-(6-fluoro-1H-indol-3-yl)acetamido)-1-isopropylpiperidine-3-carboxylate] | low or no binding | 3.15 | 1.21
COC(=O)[C@H]1CN(C(=O)Cc2c[nH]c3cc(F)ccc23)CCN1C [Compound 10156, Methyl (R)-4-(2-(6-fluoro-1H-indol-3-yl)acetyl)-1-methylpiperazine-2-carboxylate] | low or no binding | 3.43 | 1.42
COC(=O)[C@H]1CN(C)CCN1C(=O)Cc1c[nH]c2cc(F)ccc12 [Compound 10157, Methyl (R)-1-(2-(6-fluoro-1H-indol-3-yl)acetyl)-4-methylpiperazine-2-carboxylate] | low or no binding | 3.58 | 1.04
CN1CCN(C(=O)Cc2c[nH]c3cc(F)ccc23)[C@H](C(=O)O)C1 [Compound 10158] | low or no binding | 2.14 | 0.93
COC(=O)[C@@H]1CN(C(=O)Cc2c[nH]c3cc(F)ccc23)CCN1C [Compound 10163] | low or no binding | 7.3 | 1.61
CN1CCN(C(=O)Cc2c[nH]c3cc(F)ccc23)[C@@H](C(=O)O)C1 [Compound 10165, (R)-1-(2-(6-fluoro-1H-indol-3-yl)acetyl)-4-methylpiperazine-2-carboxylic acid] | low or no binding | 5.28 | 1.58
CN1CCN(C(=O)Cc2c[nH]c3cc(F)ccc23)C[C@@H]1C(=O)O [Compound 10166, (R)-4-(2-(6-fluoro-1H-indol-3-yl)acetyl)-1-methylpiperazine-2-carboxylic Acid] | low or no binding | 7.19 | 1.55

The remaining lines, values ahead:

Binding to HRas^G12V (in words) (HRas^G12V [1]) | 19F T2-CPMG Score (HRas^G12V [2]) | 19F DLB Score (HRas^G12V [3]) | Structure (SMILES)
low or no binding | 2.43 | 1.11 | COC(=O)C1CN(C)CCC1NC(=O)Cc1c[nH]c2cc(F)ccc12 (stereo not drawn) [Compound 10142, Methyl 4-(2-(6-fluoro-1H-indol-3-yl)acetamido)-1-methylpiperidine-3-carboxylate]
low or no binding | 0.9 | 0.89 | CC1CN(C(=O)Cc2cc3ccc(F)cc3[nH]2)C1 [Compound 10143, 2-(6-fluoro-1H-indol-2-yl)-1-(3-methylazetidin-1-yl)ethan-1-one]
low or no binding | 2.26 | 1.56 | O=C(O)[C@@H]1CCCN(C(=O)Cc2c[nH]c3cc(F)ccc23)C1 [Compound 10149]
low or no binding | 2.07 | 1.24 | O=C(O)[C@@H]1COCCN1C(=O)Cc1c[nH]c2cc(F)ccc12 [Compound 10150, (S)-4-(2-(6-fluoro-1H-indol-3-yl)acetyl)morpholine-3-carboxylic acid]
low or no binding | 3.24 | 1.29 | O=C(O)[C@@H]1CN(C(=O)Cc2c[nH]c3cc(F)ccc23)CCO1 [Compound 10151]
low or no binding | 3.54 | 1.03 | O=C(O)[C@H]1COCCN1C(=O)Cc1c[nH]c2cc(F)ccc12 [Compound 10152]
low or no binding | 3.22 | 1.39 | O=C(O)[C@H]1CN(C(=O)Cc2c[nH]c3cc(F)ccc23)CCO1 [Compound 10153]
low or no binding | 5.5 | 1.65 | CC(=O)NC[C@H]1CN(C(=O)Cc2c[nH]c3cc(F)ccc23)CCO1 [Compound 10162, (S)—N-((4-(2-(6-fluoro-1H-indol-3-yl)acetyl)morpholin-2-yl)methyl) acetamide]
low or no binding | 4.84 | 1.43 | CCOC(=O)[C@@H]1CN(C(=O)Cc2c[nH]c3cc(F)ccc23)CCO1 [Compound 10168]
low or no binding | 7.14 | 1.6 | CCOC(=O)[C@H]1CN(C(=O)Cc2c[nH]c3cc(F)ccc23)CCO1 [Compound 10169]
low or no binding | 6.11 | 1.52 | O=C(Cc1c[nH]c2cc(F)ccc12)N1CCN(C(=O)C2CCCO2)CC1 (stereo not drawn) [Compound 10170, 2-(6-fluoro-1H-indol-3-yl)-1-(4-(tetrahydrofuran-2-carbonyl)piperazin-1-yl)ethan-1-one]
low or no binding | 7.62 | 1.19 | CCOC(=O)C[C@@H]1CN(C(=O)Cc2c[nH]c3cc(F)ccc23)CCO1 [Compound 10171]
low or no binding | 0.11 | 0.93 | CC1CN(C(=O)Cc2cc(F)cc3[nH]ccc23)C1 [Compound 10172, 2-(6-fluoro-1H-indol-4-yl)-1-(3-methylazetidin-1-yl) ethan-1-one]

— patent publication US20240408064A1, “RAS INHIBITORS, COMPOSITIONS AND METHODS OF USE THEREOF” (GENETOLEAD INC., priority 2021, published 2024)
